Measurements: publication PMC5716993, “The interdomain flexible linker of the polypeptide GalNAc transferases dictates their long-range glycosylation preferences” (Nature Communications, 2017)
Entries after “also recorded” stand apart in the source; their conditions may differ.

Target: T1, GalNAc-T4 (Homo sapiens, UniProt Q8N4A0)
T1 construct: amino acid residues 36–578 of the human GalNAc-T4; histidine tag (C); made in house; host or cells: Pichia pastoris SMD1168 (pPICZαA, secreted)
Test: STD-NMR binding / epitope mapping
Conditions: for STD-NMR signals of the GalNAc sugar protons: GalNAc moiety, UDP, pH 7.4; for STD-NMR signals of the GalNAc sugar protons / STD-NMR signals (peptide recognition): ~880 μM ligand, 13.5 μM GalNAc-T4, 298 K; for STD-NMR signals of the GalNAc sugar protons / STD-NMR signals (peptide recognition) / STD-NMR-derived epitope mapping of GalNAc moiety: in words; for STD-NMR signals (peptide recognition): in presence of UDP and MnCl2 (75 μM each), pH 7.4 uncorrected, TRIS-d11 D2O; for STD-NMR-derived epitope mapping of GalNAc moiety: normalized to the highest STD response
Protocol: All NMR experiments were recorded on a Bruker Avance 600 MHz spectrometer equipped with a triple channel cryoprobe head. The^1H NMR resonances of the peptides 1–3 were completely assigned through standard 2D-TOCSY (30 and 80 ms mixing time) and 2D-NOESY experiments (400 ms mixing time). Solution conditions used for the NMR characterization studies were 1–3 mM (glyco)peptide, 25 mM perdeuterated tris-d11 in 90:10 H2O/D2O, 7.5 mM NaCl, and 1 mM DTT, uncorrected pH 7.4. The assignments were accomplished either at 278 or 298 K. The resonance of 2,2,3,3-tetradeutero-3-trimethylsilylpropionic acid (TSP) was used as a chemical shift reference in the^1H NMR experiments (δ TSP = 0 ppm). Peak lists for the 2D-TOCSY and 2D-NOESY spectra were generated by interactive peak picking using the computer aided resonance assignment (CARA) software.
Samples for STD experiments were prepared in perdeuterated 25 mM TRIS-d11 in deuterated water, 7.5 mM NaCl, and 1 mM DTT, uncorrected pH 7.4. STD-NMR experiments were performed at 298 K in the presence of 75 μM UDP, 75 μM MnCl2 with ~880 μM peptide (or GalNAc-O-Me) and 13.5 μM GalNAc-T4 giving a molar ratio of 65:1 peptide:GalNAc-T4.
The STD-NMR spectra were acquired with 1920 transients in a matrix with 64 k data points in t2 in a spectral window of 12335.53 Hz centered at 2819.65 Hz. An excitation sculpting module with gradients was employed to suppress the water proton signals. Selective saturation of the protein resonances (on resonance spectrum) was performed by irradiating at −1 ppm using a series of Eburp2.1000-shaped 90° pulses (50 ms, 1 ms delay between pulses) for a total saturation time of 2.0 s. For the reference spectrum (off resonance), the samples were irradiated at 100 ppm. Proper control experiments were performed with the ligands in the presence and absence of the protein in order to optimize the frequency for protein saturation (−1 ppm) and to ensure that the ligand signals were not affected. […] This nonspecific saturation was taken into account, by subtraction, when quantifying the STD-NMR data in the presence of the transferase. As well, a blank STD experiment with only the protein was also recorded. The substraction of this protein STD spectrum allowed eliminating the signal background of the protein. In all cases, to accomplish the STD-NMR-derived epitope mapping of each ligand, the STD-NMR total intensities were normalized with respect to the highest STD-NMR response. For Fig. 2b and Supplementary Fig. 1, the STD response of each amino acid corresponds to the average of STD percentages of all amino acid proton resonances that were measured with sufficient accuracy. The signal of the anomeric proton of as well as, the Hα protons of the Ala amino acids of glycopeptides could not be analyzed in the STD-NMR spectra due to their close proximity to the HDO resonance. Proton resonances, from Gly and Pro, appear in the same chemical shift region of the spectrum and were not discriminated.

T1 sequence (Q8N4A0 36-578): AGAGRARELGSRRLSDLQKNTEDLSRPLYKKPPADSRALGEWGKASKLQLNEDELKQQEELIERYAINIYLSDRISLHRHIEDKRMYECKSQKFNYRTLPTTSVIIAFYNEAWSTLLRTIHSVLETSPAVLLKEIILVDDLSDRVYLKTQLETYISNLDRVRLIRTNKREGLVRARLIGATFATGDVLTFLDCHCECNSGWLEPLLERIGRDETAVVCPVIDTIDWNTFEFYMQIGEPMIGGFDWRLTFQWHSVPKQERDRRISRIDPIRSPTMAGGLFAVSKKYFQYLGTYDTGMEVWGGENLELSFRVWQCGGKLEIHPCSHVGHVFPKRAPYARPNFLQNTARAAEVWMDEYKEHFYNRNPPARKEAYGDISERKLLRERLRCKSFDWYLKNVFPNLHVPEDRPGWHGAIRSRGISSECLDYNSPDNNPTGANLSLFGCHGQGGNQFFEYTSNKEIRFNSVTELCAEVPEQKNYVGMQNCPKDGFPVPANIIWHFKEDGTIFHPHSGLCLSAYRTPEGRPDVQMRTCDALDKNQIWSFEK

Substance	STD-NMR signals of the GalNAc sugar protons (MnCl2)	STD-NMR signals (peptide recognition)	STD-NMR-derived epitope mapping of GalNAc moiety (298 K, pH 7.4, UDP, MnCl2)	STD response, GalNAc H3 (H3 of GalNAc moiety, normalized to highest STD response, 298 K, pH 7.4, UDP, MnCl2) [%]	STD response, GalNAc H4 (H4 of GalNAc moiety, normalized to highest STD response, 298 K, pH 7.4, UDP, MnCl2) [%]
AGAGTTPGPGAGAT*GA [Peptide 2, monoglycopeptide …*GA, T* denotes the Thr-O-GalNAc moiety]	unambiguous and more intense STD-NMR signals; also recorded: GalNAc protons receive much more saturation than the amino acid residues	relatively weak STD-NMR signals were observed for the Ala and Thr methyl protons	the highest STD response corresponded to the H2 proton of the GalNAc moiety followed by a modest STD of protons H4, H3, and N-acetyl group	–	–
GAT*GAGAGAGTTPGPG [Peptide 3, monoglycopeptide GAT*…, T* denotes the Thr-O-GalNAc moiety]	unambiguous and more intense STD-NMR signals; also recorded: GalNAc protons receive much more saturation than the amino acid residues	relatively weak STD-NMR signals were observed for the Ala and Thr methyl protons; also recorded: no significant STD with the acceptor peptide residues	H2, H4, and the N-acetyl group of the GalNAc moiety have the highest STD-NMR response closely followed by the H3 proton	72	92
